In paper PMC6272399, “Anti-Proliferative Effect and Induction of Apoptosis in Androgen-Independent Human Prostate Cancer Cells by 1,5-Bis(2-hydroxyphenyl)-1,4-pentadiene-3-one” (Molecules, 2015):

Tested on: DU 145 cells
Assay: BrdU cell proliferation assay, DU 145
Type: cell-based, human
Settings: DU 145, BrdU
Experimental: The anti-proliferative effects of compound on treated cells, was measured using the BrdU cell proliferation assay kit (Roche Applied Science Diagnostics, Indianapolis, IN, USA) according to the manufacturer’s protocol. The assay was based on incorporation of BrdU during DNA synthesis in proliferating cells. Cells were plated at a concentration of 10^4 cells/mL in a 96-well microtiter plate and incubated overnight. The cells were treated with compounds and curcumin (concentrations ranging from 1.56 µM–100 µM) as positive control for 24, 48 and 72 h respectively. Then, BrdU labeling solution (5 µL, diluted by 1/100 in culture media) was added to each well and incubated for 2 h at 37 °C. The media was replaced with fix/denaturing solution (100 µL) and incubated for 30 min at room temperature. Then, the fix/denaturing solution was removed by tapping off and followed by addition of 50 µL anti-BrdU antibody (50 µL, diluted by 1/100 in dilution buffer) to each well and further incubated for another 90 min at room temperature. Next, the cells were washed 3 times with wash buffer and substrate solution (50 µL) was added to each well. The plate was left for 10 min at room temperature in the dark and the absorbance was measured at a wavelength of 370 nm with a reference wavelength of 492 nm using a micro-plate ELISA reader (Bio-Rad). The percentage of BrdU incorporation was determined based on the ratio of absorbance of sample treated-cells to absorbance of control (untreated cells/DMSO only) multiplied by 100.

O=C(C=Cc1ccccc1O)C=Cc1ccccc1O [MS17, 1,5-bis(2-hydroxyphenyl)-1,4-pentadiene-3-one]
concentration from which anti-proliferative activity is significant (24 h): 6.3 µM
concentration from which anti-proliferative activity is significant (48 h): 6.3 µM
concentration from which anti-proliferative activity is significant (72 h): 12.5 µM
